Experimental data reported in patent US20100167261A1, “PLATELET STABILIZATION” (SIEMENS HEALTHCARE DIAGNOSTICS INC., priority 2006, published 2010).
Read-outs that look alike come from different tables or passages of the source.

Columns and labels:
Assay type in all cases: cell-based
platelets [1] = assay: morphometric evaluation of dense bodies per platelet, electron microscopy whole mounts; settings: * = statistically significant at the 95% confidence level
From the text: In accordance with published methods, platelet whole mounts were viewed “by transparence”, i.e., while supported on polyvinal formal resin, and dense bodies were counted.
The plot depicts mean values with 95% LSD intervals.

platelets [2] = assay: mean platelet component (MPC) of stored blood samples, ADVIA 2120 Hematology System; settings: for mean platelet component (MPC), Average: Table 1, stored at 22° C.
Protocol: The ADVIA® 120 Hematology System is an automated analyzer that, in addition to measuring the conventional hematologic indices, also provides some activation-related information about platelets. Macey M G et al., Cytometry 38:250-55 (1999). It measures the intensity of light scattered by platelets at two different cone angles (2-3° and 5-15° and from the paired values computes platelet volume (PV) and platelet component (PC) concentration on a cell-by-cell basis. These values are then averaged to provide the Mean Platelet Component (MPC).
(§1) The samples were subjected to gently agitation, and were stored either at room temperature (22° C.) or at 4° C., and mean platelet component and mean platelet volume values were obtained at the designated time points using the ADVIA® 2120 system.
Blood from healthy controls were also collected into Vacutainer® K3E 4.5 mL K3EDTA sample collection tubes (Cat. No. 367654, Becton, Dickinson and Company, Franklin Lakes, N.J.) and combined with the remaining STABILE-1 reagents (citrate-phosphate-dextrose, wortmanin, tyrphostin) to yield the prescribed concentrations. These samples were stored either at room temperature (22° C.) or at 4° C., and mean platelet component values were obtained at the designated time points using the ADVIA® 2120 system.
(§2) Blood from healthy controls were also collected into Vacutainer® K3E 4.5 mL K3EDTA sample collection tubes (Cat. No. 367654, Becton, Dickinson and Company, Franklin Lakes, N.J.) and combined with the remaining STABILE-1 reagents (citrate-phosphate-dextrose, wortmanin, tyrphostin) to yield the prescribed concentrations. […] Mean platelet component and mean platelet volume were assessed at 30 min, 6 hr, and 24 hr following blood collection/initial combination with storage reagents using the ADVIA® 2120 system (Bayer AG, Leverkusen, Germany). Flow cytometry techniques were used to identify platelet activation proteins, and the impact of these strategies on ultrastructural morphology of platelets was morphometrically evaluated using electron microscopy (EM). The values obtained at t=0+30 (i.e., 30 min after blood collection and the initial combination with the storage reagents) were designated as baseline values to which values observed at t=6 hr and t=24 hr were compared.
Blood from healthy controls were carefully collected, and mean platelet component was assessed upon combination of blood with the respective storage reagents, using the ADVIA® 2120 system (Bayer AG, Leverkusen, Germany), and again at 1 hr, 3 hr, 6 hr, and 24 hr following the initial combination with storage reagents. All samples were stored at room temperature (22° C.).
Experiments were conducted in order to assess the effect of varying the concentration of the citrate-phosphate-dextrose component in the STABILE-1 storage medium on the mean platelet component. Blood from healthy controls were carefully collected, and mean platelet component was assessed upon combination of blood with the respective storage reagents, using the ADVIA® 2120 system (Bayer AG, Leverkusen, Germany), and again at 1 hr, 3 hr, 6 hr, and 24 hr following the initial combination with storage reagents. All samples were stored at room temperature (22° C.).

[3] = test system: P-selectin (also known as CD62P); assay: P-selectin expression of stored platelets, flow cytometry; settings: 22° C., n = 8
Protocol: as §2

platelets [4] = settings: for MPV, increase in % vs 30 min baseline: n = 8; for mean platelet volume (MPV), Average: Table 4, stored at 22° C.
Protocol: as §1
Blood from healthy controls were also collected into Vacutainer® K3E 4.5 mL K3EDTA sample collection tubes (Cat. No. 367654, Becton, Dickinson and Company, Franklin Lakes, N.J.) and combined with the remaining STABILE-1 reagents (citrate-phosphate-dextrose, wortmanin, tyrphostin) to yield the prescribed concentrations. These samples were stored either at room temperature (22° C.) or at 4° C., and mean platelet component volume was assessed at the designated time points using the ADVIA® 2120 system.
as §2, with “(EM).” for “(EM). The values obtained at t=0+30 (i.e., 30 min after blood collection and the initial combination with the storage reagents) were designated as baseline values to which values observed at t=6 hr and t=24 hr were compared.”

platelets [5] = assay: morphometric evaluation of α-granules per platelet and platelet morphology, electron microscopy
Protocol: as §2

O=C(O)CN(CCN(CC(=O)O)CC(=O)O)CC(=O)O [EDTA, Ethylenediaminetetraacetic acid]
Difference, mean number of dense bodies per platelet (platelets [1]; Contrast EDTA 0 hr vs. stored 1 hr): −1.26*
Difference, mean number of dense bodies per platelet (platelets [1]; Contrast EDTA 0 hr vs. stored 24 hr): 2.1*
Difference, mean number of dense bodies per platelet (platelets [1]; Contrast EDTA 1 hr vs. EDTA 6 hr): 1.9*
MPC (platelets [2]; 30 min (baseline), 22° C., n = 8): 259 ± 6.6 g/L
MPC, reduction in % vs 30 min baseline (platelets [2]; 6 hours, 22° C., n = 8): −9%
MPC, reduction in % vs 30 min baseline (platelets [2]; 24 hours, 22° C., n = 8): −21%
mean platelet component (MPC), Average (platelets [2]; 0 min, n 12): 260.83
mean platelet component (MPC), Average (platelets [2]; 30 min, n 15): 258.07
mean platelet component (MPC), Average (platelets [2]; 1 h, n 15): 252.00
mean platelet component (MPC), Average (platelets [2]; 3 h, n 15): 239.07
mean platelet component (MPC), Average (platelets [2]; 6 h, n 15): 229.87
mean platelet component (MPC), Average (platelets [2]; 24 h, n 15): 201.07
mean platelet component (platelets [2]; Table 8, 0, stored at room temperature (22° C.)): 278
mean platelet component (platelets [2]; Table 8, 1 hr, stored at room temperature (22° C.)): 273
mean platelet component (platelets [2]; Table 8, 3 hr, stored at room temperature (22° C.)): 265
mean platelet component (platelets [2]; Table 8, 6 hr, stored at room temperature (22° C.)): 268
mean platelet component (platelets [2]; Table 8, 24 hr, stored at room temperature (22° C.)): 233
mean platelet component (platelets [2]; Table 10, 0, stored at room temperature (22° C.)): 258
mean platelet component (platelets [2]; Table 10, 1 hr, stored at room temperature (22° C.)): 247
mean platelet component (platelets [2]; Table 10, 3 hr, stored at room temperature (22° C.)): 235
mean platelet component (platelets [2]; Table 10, 6 hr, stored at room temperature (22° C.)): 225
mean platelet component (platelets [2]; Table 10, 24 hr, stored at room temperature (22° C.)): 190
mean platelet component (platelets [2]; Table 11, 0, stored at room temperature (22° C.)): 288
mean platelet component (platelets [2]; Table 11, 1 hr, stored at room temperature (22° C.)): 282
mean platelet component (platelets [2]; Table 11, 3 hr, stored at room temperature (22° C.)): 271
mean platelet component (platelets [2]; Table 11, 6 hr, stored at room temperature (22° C.)): 269
mean platelet component (platelets [2]; Table 11, 24 hr, stored at room temperature (22° C.)): 227
decrease in the mean platelet component (platelets [2]; six hours after initial combination (t=0), storage at 22° C., Tables 1 and 2): ~12%
decrease of MPC values (platelets [2]; t=5.5 hr after baseline measurements, room temperature / 22° C.): 9%
P-selectin, % of positive platelets ([3]; 30 min (baseline)): 2.1%
P-selectin, % of positive platelets ([3]; 6 hours): 13.9%
P-selectin, % of positive platelets ([3]; 24 hours): 40.8%
MPV (platelets [4]): 8.3 ± 0.2 fL
increase of MPV values (platelets [4]; 5.5 hours after baseline, 22° C.): 10.2%
MPV, increase in % vs 30 min baseline (platelets [4]; 6 hours, 22° C.): +10.2%
MPV, increase in % vs 30 min baseline (platelets [4]; 24 hours, 22° C.): +23%
mean platelet volume (MPV), Average (platelets [4]; 0 min, n 12): 8.36
mean platelet volume (MPV), Average (platelets [4]; 30 min, n 15): 8.41
mean platelet volume (MPV), Average (platelets [4]; 1 h, n 15): 8.65
mean platelet volume (MPV), Average (platelets [4]; 3 h, n 15): 9.22
mean platelet volume (MPV), Average (platelets [4]; 6 h, n 15): 9.53
mean platelet volume (MPV), Average (platelets [4]; 24 h, n 15): 10.63
increase in the mean platelet volume (platelets [4]; six hours after initial combination (t=0), storage at 22° C., Tables 4 and 5): ~12%
number of α-granules per platelet section (platelets [5]; 6 h): 6.4±2.3
number of α-granules per platelet section (platelets [5]; 24 h): 3.5±1.4
number of α-granules per platelet as compared with t=0 (platelets [5]; FIG. 4A, six hours of storage, 22° C.): statistical reduction
number of α-granules per platelet section (platelets [5]; baseline): 12.3±6.07
